Source: patent US20160264536A1, “HETEROCYCLIC COMPOUND” (Takeda Pharmaceutical Company Limited, priority 2013, published 2016)

Molecular target: T1, human PDE2A3 enzyme (Homo sapiens, UniProt O00408)
T1 construct: Human PDE2A3 full-length gene was transduced into Sf9; His-tag; made in house; host or cells: Sf9 insect cells
Assay: PDE enzyme inhibitory assay (SPA, [3H]cGMP substrate)
Assay type: biochemical
Conditions: compound 1 μM, substrate [3H]cGMP 77 nM, read-out: inhibitory rate (%) (1 μM)
Procedure: PDE Enzyme Inhibitory Assay
Human PDE2A3 full-length gene was transduced into Sf9, and human PDE2A3 enzyme was purified by His-tag affinity column and gel filtration. The enzyme was stored at −70° C. until use. PDE activity was measured by using a SPA (Scintillation Proximity Assay) (GE Healthcare). To evaluate the inhibitory activity of the compound, 10 μl of serial diluted compounds were reacted with 20 μl of PDE enzyme in assay buffer (50 mM HEPES-NaOH, 8.3 mM MgCl2, 1.7 mM EGTA, 0.1% BSA (pH 7.4)) for 30 min at room temperature. Final concentration of DMSO in the reaction solution was 1%. Compounds were tested in duplicate in 96-well half-area plates (Corning) or 384-well OptiPlate (PerkinElmer). To start the reaction, 10 μl of substrate [^3H]cGMP (final concentration 77 nM, PerkinElmer) was added to a total volume of 40 μl. After reaction for 60 min at room temperature, 20 μl of 20 mg/mL yttrium SPA beads containing zinc sulfate was added to terminate the reaction. After being settled for further 1 hour, the assay plates were counted in a scintillation counter (PerkinElmer) to allow calculation of inhibition rate. Inhibition rate was calculated on the basis of 0% control wells with enzyme and DMSO, and 100% control wells without enzyme.

T1 sequence (O00408 whole entry): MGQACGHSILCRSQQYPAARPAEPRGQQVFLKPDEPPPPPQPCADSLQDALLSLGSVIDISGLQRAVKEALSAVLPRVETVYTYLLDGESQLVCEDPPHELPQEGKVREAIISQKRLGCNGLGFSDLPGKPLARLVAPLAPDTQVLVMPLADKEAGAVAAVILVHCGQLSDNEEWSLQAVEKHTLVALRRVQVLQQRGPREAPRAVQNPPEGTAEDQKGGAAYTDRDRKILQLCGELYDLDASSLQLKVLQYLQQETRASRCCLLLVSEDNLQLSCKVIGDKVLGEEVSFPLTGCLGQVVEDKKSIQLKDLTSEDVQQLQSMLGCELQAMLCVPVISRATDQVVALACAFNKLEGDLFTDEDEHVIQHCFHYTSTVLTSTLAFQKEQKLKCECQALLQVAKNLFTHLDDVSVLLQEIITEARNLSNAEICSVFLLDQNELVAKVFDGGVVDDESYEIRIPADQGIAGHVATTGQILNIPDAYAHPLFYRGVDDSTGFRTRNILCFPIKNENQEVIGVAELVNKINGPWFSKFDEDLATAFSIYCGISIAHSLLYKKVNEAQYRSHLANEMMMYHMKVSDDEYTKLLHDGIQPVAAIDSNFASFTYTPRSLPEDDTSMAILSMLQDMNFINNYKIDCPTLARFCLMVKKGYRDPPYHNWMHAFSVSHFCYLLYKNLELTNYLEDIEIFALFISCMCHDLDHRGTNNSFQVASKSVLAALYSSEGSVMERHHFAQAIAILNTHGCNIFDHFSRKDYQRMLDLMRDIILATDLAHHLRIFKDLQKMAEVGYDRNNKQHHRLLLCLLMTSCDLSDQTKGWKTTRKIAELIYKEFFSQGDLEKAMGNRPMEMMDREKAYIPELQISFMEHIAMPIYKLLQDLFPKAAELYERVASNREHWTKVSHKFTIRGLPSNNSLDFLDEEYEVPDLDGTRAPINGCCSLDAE

Structure (SMILES)	inhibition at 1 µM
COC[C@@H](NC(=O)c1cc(=O)[nH]c(N(C)C)n1)c1ccc(OC(F)(F)F)c(F)c1 [Example 33, 2-(dimethylamino)-N-((1S)-1-(3-fluoro-4-(trifluoromethoxy)phenyl)-2-methoxyethyl)-6-oxo-1,6-dihydropyrimidine-4-carboxamide]	99%
COC[C@@H](NC(=O)c1cc(=O)[nH]c(-c2ncc(OC(F)F)cc2F)n1)c1ccc(OC(F)(F)F)c(F)c1 [Example 186, 2-(5-(difluoromethoxy)-3-fluoropyridin-2-yl)-N-((1S)-1-(3-fluoro-4-(trifluoro-methoxy)phenyl)-2-methoxyethyl)-6-oxo-1,6-dihydropyrimidine-4-carboxamide]	92%
COC[C@@H](NC(=O)c1cc(=O)[nH]c(N2CC3CC(C2)O3)n1)c1ccc(OC(F)(F)F)c(F)c1 [Example 73, N-((1S)-1-(3-fluoro-4-(trifluoromethoxy)phenyl)-2-methoxyethyl)-2-(6-oxa-3-azabicyclo[3.1.1]hept-3-yl)-6-oxo-1,6-dihydropyrimidine-4-carboxamide]	99%
CCN(C)c1nc(C(=O)N[C@H](COC)c2ccc(OC(F)(F)F)c(F)c2)cc(=O)[nH]1 [Example 76, 2-(ethyl(methyl)amino)-N-((1S)-1-(3-fluoro-4-(trifluoromethoxy)phenyl)-2-methoxyethyl)-6-oxo-1,6-dihydropyrimidine-4-carboxamide]	101%
COC[C@@H](NC(=O)c1cc(=O)[nH]c(-c2ccccn2)n1)c1ccc(OC(F)(F)F)c(F)c1 [Example 88, N-((1S)-1-(3-fluoro-4-(trifluoromethoxy)phenyl)-2-methoxyethyl)-6-oxo-2-(pyridin-2-yl)-1,6-dihydropyrimidine-4-carboxamide]	92%

Results, then the compound that gave them:

inhibition at 1 µM	Structure (SMILES)
98%	COC[C@@H](NC(=O)c1cc(=O)[nH]c(C2=CCCC2)n1)c1ccc(OC(F)(F)F)c(F)c1 [Example 83, 2-(cyclopent-1-en-1-yl)-N-((1S)-1-(3-fluoro-4-(trifluoromethoxy)phenyl)-2-methoxyethyl)-6-oxo-1,6-dihydropyrimidine-4-carboxamide]
94%	COC[C@@H](NC(=O)c1cc(=O)[nH]c(-c2ncc(OC)cc2C)n1)c1ccc(OC(F)(F)F)c(F)c1 [Example 179, N-((1S)-1-(3-fluoro-4-(trifluoromethoxy)phenyl)-2-methoxyethyl)-2-(5-methoxy-3-methylpyridin-2-yl)-6-oxo-1,6-dihydropyrimidine-4-carboxamide]
99%	CC(C)(O)C(NC(=O)c1cc(=O)[nH]c(N2CCCC2)n1)c1ccc(OC(F)(F)F)c(F)c1 (centres unmarked) [Example 62, N-(1-(3-fluoro-4-(trifluoromethoxy)phenyl)-2-hydroxy-2-methylpropyl)-6-oxo-2-(pyrrolidin-1-yl)-1,6-dihydropyrimidine-4-carboxamide]
